Results from doi:10.1101/2025.07.18.665579v1 (biorxiv, 2025).
Changes are numbered by the printed parent chain.

Legend:
Assay in all cases: microscale thermophoresis
Format in all cases: binding
SbXXT (Sb2G401600) [1] = biological target: T1, SbXXT (Sb2G401600) (Sorghum bicolor, UniProt C5X460)
T1 sequence (C5X460 93-554): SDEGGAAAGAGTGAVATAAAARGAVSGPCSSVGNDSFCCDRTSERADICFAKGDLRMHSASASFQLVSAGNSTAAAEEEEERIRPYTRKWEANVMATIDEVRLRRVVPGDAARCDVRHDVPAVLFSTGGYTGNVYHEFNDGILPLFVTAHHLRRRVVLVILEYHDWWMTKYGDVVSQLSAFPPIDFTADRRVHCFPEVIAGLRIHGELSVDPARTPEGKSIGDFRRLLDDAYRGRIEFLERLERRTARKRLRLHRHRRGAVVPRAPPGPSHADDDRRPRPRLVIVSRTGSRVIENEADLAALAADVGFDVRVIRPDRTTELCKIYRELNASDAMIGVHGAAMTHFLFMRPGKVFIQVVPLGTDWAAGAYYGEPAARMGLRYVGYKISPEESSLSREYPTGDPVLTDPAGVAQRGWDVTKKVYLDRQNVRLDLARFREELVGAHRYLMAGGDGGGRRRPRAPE

SbXAT (Sb3G094600) [2] = biological target: SbXAT (Sb3G094600) (Sorghum bicolor, UniProt A0A1B6Q2C2)
SbXXT (Sb2G401600) [3] = biological target: T2, SbXXT (Sb2G401600) (Sorghum bicolor, UniProt C5X460, Y462F)
T2 sequence (C5X460 93-554 Y462F): T1 sequence (C5X460 93-554) with Y370F

SbXAT (Sb3G094600) [4] = biological target: SbXAT (Sb3G094600) (Sorghum bicolor, UniProt A0A1B6Q2C2, F596Y)
Sequence of SbXAT (Sb3G094600) (Sorghum bicolor, UniProt A0A1B6Q2C2, F596Y) (A0A1B6Q2C2 198-685 F596Y): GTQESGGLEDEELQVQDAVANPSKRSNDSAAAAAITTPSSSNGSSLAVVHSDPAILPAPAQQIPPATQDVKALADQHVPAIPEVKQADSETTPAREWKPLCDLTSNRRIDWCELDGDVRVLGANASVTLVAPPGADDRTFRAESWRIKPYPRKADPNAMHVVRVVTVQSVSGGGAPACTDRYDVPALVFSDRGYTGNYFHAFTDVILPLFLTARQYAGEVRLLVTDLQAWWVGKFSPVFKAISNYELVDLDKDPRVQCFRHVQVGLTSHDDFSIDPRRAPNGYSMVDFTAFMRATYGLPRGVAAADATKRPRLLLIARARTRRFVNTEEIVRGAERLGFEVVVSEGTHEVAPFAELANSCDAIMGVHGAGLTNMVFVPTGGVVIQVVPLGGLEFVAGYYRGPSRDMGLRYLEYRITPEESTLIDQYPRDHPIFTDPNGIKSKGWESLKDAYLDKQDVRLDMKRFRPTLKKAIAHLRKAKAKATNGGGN

Sequence of SbXAT (Sb3G094600) (Sorghum bicolor, UniProt A0A1B6Q2C2) (A0A1B6Q2C2 198-685): as the sequence (A0A1B6Q2C2 198-685 F596Y) above, with Y399F counted along it

Kd (SbXXT (Sb2G401600) [1])	Kd (SbXAT (Sb3G094600) [2])	Kd (SbXXT (Sb2G401600) [3])	Kd (SbXAT (Sb3G094600) [4])	Compound
26 µM	244 µM	19 µM	531 µM	O=c1ccn([C@@H]2O[C@H](COP(=O)(O)OP(=O)(O)O[C@H]3O[C@@H](CO)[C@H](O)[C@H]3O)[C@@H](O)[C@H]2O)c(=O)[nH]1 [UDP-Araf]
13 µM	373 µM	15 µM	221 µM	O=c1ccn([C@@H]2O[C@H](COP(=O)(O)OP(=O)(O)O[C@H]3OC[C@@H](O)[C@H](O)[C@H]3O)[C@@H](O)[C@H]2O)c(=O)[nH]1 [UDP-Xyl]
